Patent US20260224527A1, “USES OF ANTI-PSYCHOTIC AGENTS” (LB PHARMACEUTICALS INC., priority 2023, published 2026)

Columns and labels:
PCP-treated rats [1] = assay: Social interaction (sniffing index, SI) assay in scPCP model; assay type: in vivo, rat
Method: (§1) Differences in discrimination index ((time spent exploring novel−time spent exploring familiar)/total exploration time) are depicted. scPCP rats treated with risperidone (Risp) served as a positive control. […] Rats treated with cariprazine (Cari) served as a positive control.
The sniffing component of the SI assay was carried out as described in (J. C. Neil, S. Barnes, S. Cook, B. Grayson, N. F. Iris, S. L. McLean, S. Snigdha, L. Rajagopa, and M. K. Harte, “Animal models of cognitive dysfunction and negative symptoms of schizophrenia: focus on NMDA receptor antagonism”, Pharmacol. Ther., 2010, 128, 419-423) in groups of 12 rats.

PCP-treated rats [2] = assay: Novel Object Recognition (NOR) assay in scPCP model; assay type: in vivo, rat; conditions: for effect on Discrimination Index (DI): 3 hr post-dose
Method: as §1
Efficacy of LB-102, LB-103, and LB-104 at different doses was evaluated in rats in a Novel Object Recognition (NOR) assay, a well-established model recapitulating cognitive and negative aspects of the PANSS scale of schizophrenia. In this assay, animals were treated for several weeks with a low dose of phencyclidine (PCP) to impair the ability of the rat to discern between novel and familiar objects. Typically rats, like humans, would spend more time exploring a novel object than a familiar one.
In this NOR study the efficacies of LB-102, LB-103, and LB-104 were compared to known antipsychotic risperidone for its ability to restore normal differentiation between novel and familiar object exploration in PCP-treated rats. Cognitive measurements were taken at 3 hr post-dose for LB-102, LB-103, and LB-104 and 30 min for risperidone. The endpoint of this study was the Discrimination Index (DI), a normalized ratio of time spent exploring a novel object compared to a familiar one.

[3] = tested on: histamine receptor subtypes; conditions: cited from earlier work
D4 receptor subtype = target: T1, D4 receptor subtype (Homo sapiens, UniProt P21917); conditions: cited from earlier work
T1 sequence (P21917 1-419): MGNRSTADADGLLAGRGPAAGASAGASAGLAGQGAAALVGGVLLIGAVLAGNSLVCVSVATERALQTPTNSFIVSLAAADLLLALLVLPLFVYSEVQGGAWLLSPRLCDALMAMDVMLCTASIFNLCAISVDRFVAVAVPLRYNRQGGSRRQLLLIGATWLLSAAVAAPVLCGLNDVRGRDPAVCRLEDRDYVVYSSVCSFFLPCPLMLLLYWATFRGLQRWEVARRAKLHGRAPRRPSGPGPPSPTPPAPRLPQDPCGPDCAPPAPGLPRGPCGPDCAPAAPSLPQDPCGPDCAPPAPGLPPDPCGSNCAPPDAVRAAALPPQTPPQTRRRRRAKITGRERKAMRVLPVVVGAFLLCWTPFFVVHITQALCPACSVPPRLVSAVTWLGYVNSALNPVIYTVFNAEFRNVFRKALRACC

D1 receptor subtype = D1 receptor subtype (Homo sapiens, UniProt P21728); conditions: cited from earlier work
Sequence of D1 receptor subtype (P21728 whole entry): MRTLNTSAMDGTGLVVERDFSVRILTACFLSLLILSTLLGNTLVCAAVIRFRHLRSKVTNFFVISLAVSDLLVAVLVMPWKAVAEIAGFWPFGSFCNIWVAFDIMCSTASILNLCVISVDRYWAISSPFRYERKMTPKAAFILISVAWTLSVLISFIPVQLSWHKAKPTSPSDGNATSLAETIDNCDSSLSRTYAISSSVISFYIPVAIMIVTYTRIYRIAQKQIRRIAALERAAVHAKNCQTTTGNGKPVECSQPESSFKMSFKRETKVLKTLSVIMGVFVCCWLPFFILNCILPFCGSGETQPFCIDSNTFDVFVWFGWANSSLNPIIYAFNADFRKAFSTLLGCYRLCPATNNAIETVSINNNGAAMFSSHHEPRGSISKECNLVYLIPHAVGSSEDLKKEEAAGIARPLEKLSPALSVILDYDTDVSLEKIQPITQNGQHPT

sigma sites = conditions: cited from earlier work
[4] = tested on: serotonin receptor subtypes; conditions: cited from earlier work
D5 receptor subtype = D5 receptor subtype (Homo sapiens, UniProt P21918); conditions: cited from earlier work
Sequence of D5 receptor subtype (P21918 whole entry): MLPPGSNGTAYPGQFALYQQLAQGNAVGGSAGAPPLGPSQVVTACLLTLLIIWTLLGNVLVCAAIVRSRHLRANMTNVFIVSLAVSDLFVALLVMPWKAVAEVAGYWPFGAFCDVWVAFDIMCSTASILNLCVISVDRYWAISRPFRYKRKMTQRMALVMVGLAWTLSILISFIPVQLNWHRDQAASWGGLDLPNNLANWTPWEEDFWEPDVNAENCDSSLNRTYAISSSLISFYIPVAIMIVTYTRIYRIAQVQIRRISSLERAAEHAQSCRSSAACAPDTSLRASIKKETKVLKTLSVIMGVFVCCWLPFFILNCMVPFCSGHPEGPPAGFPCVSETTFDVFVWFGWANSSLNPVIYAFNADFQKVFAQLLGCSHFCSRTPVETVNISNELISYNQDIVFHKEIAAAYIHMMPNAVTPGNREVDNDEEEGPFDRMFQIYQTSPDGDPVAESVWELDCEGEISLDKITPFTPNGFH

[5] = tested on: alpha-adrenergic receptor subtypes; conditions: cited from earlier work
5-HT2a receptor = 5-HT2a receptor (Homo sapiens, UniProt P28223); conditions: compared to other antipsychotics; cited from earlier work
Sequence of 5-HT2a receptor (P28223 whole entry): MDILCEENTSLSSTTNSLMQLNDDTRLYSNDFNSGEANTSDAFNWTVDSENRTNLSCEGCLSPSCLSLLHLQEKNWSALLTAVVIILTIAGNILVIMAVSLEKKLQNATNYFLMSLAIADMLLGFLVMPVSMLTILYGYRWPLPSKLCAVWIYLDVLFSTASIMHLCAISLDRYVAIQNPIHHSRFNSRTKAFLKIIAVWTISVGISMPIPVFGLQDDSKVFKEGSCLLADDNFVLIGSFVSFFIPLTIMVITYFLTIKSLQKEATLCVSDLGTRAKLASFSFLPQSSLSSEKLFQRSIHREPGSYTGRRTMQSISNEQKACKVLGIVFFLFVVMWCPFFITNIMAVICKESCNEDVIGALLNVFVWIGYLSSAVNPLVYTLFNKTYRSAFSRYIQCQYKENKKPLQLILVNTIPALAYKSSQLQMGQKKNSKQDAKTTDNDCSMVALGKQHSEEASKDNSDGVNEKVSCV

[6] = 2014 study, rank among 30 psychiatric drugs; cited from earlier work
muscarinic receptors = conditions: cited from earlier work

Structure (SMILES): CCN1CCCC1CNC(=O)c1cc(S(=O)(=O)CC)c(NC)cc1OC (racemic) [LB-102]
- effect on sniffing index (social interaction) (PCP-treated rats [1]; 5 mg (printed)): significant effect
- effect on sniffing index (social interaction) (PCP-treated rats [1]; 45 mg/kg): significant effect
- NOR result compared to LB-104 (PCP-treated rats [2]): comparable results
- effect on Discrimination Index (DI) (PCP-treated rats [2]; 15 mg/kg): significant improvement
- effect on Discrimination Index (DI) (PCP-treated rats [2]; 45 mg/kg): significant improvement

Structure (SMILES): CCN1CCCC1CNC(=O)c1cc(S(=O)(=O)CC)c(N)cc1OC (stereo not drawn) [Amisulpride, 4-amino-N-(((1-ethyl-2-pyrrolidinyl)methyl)-5-(ethylsulfonyl))-2-methoxybenzamide]
- affinity [3]: low affinity
- affinity (D4 receptor subtype): without any affinity
- affinity (D1 receptor subtype): without any affinity
- affinity (sigma sites): low affinity
- affinity [4]: low affinity
- affinity (D5 receptor subtype): without any affinity
- affinity [5]: low affinity
- activity at the 5-HT2a receptor (5-HT2a receptor): not noted to have any activity
- passive diffusion across a PAMPA membrane (Pe) [6]: lowest of 30 psychiatric drugs tested
- affinity (muscarinic receptors): low affinity

Structure (SMILES): CCN1CCC[C@@H]1CNC(=O)c1cc(S(=O)(=O)CC)c(NC)cc1OC [LB-104]
- effect on sniffing index (social interaction) (PCP-treated rats [1]; 45 mg/kg): significant effect
- effect on Discrimination Index (DI) (PCP-treated rats [2]; 15 mg/kg): significant improvement
- effect on Discrimination Index (DI) (PCP-treated rats [2]; 45 mg/kg): significant improvement
